According to patent US10730883B2 (AbbVie Inc., priority 2015, dated 2020):
“Also recorded” adds a separate entry of the source.

What was measured:
Type in all cases: physicochemical
[1] = Physical stability of solid state forms (dehydration, desolvation, conversion); conditions: general statement on the solid state form
Method: The Tartrate Hydrate dehydrated into Amorphous at low relative humidity and high temperature, e.g., <10% RH at 25° C. Shearing and compression potentially cause conversion to the amorphous tartrate, and therefore it is not suitable for compressing into tablet form. Additionally, the filter cake solidified during drying, resulting in the need for additional controls during drying.
In addition, Freebase Hydrate Form C can be grown into different particle sizes.
Freebase Anhydrate Form D can be manufactured only when the water content of the crystallization solvent is low, and will convert to Freebase Hydrate Form C in solutions at high water content. The manufacture of Freebase Anhydrate Form D thus requires strict control of water content. Freebase Anhydrate Form D is slow to crystallize, and difficult to manufacture in higher yield. […] Freebase Hydrate Form C will convert to Freebase Anhydrate Form D in a solution of ethyl acetate with low water content.
The resulting amorphous hydrochloride is hygroscopic. Yields obtained for each of the crystalline hydrochlorides generally have been in the 10% to 15% range.

[2] = Solubility of solid state forms
[3] = Solid state accelerated stability study; conditions: for Growth of degradation products: open and closed glass vials
Method: Samples (approximately 1 mg to 2 mg) of the solid state form were weighed into glass vials and tested as described below.

[4] = Moisture sorption isotherm; conditions: below 10% relative humidity at 25° C.
Method: Moisture vapor isotherm data were collected with a DVS Advantage (Surface Measurement Systems Ltd, Alperton, United Kingdom). The sample powder (5 mg to 20 mg) was loaded on a tared pan of the DVS Advantage. The moisture sorption isotherm data were collected from 30-0-90-0-30% relative humidity in 10% relative humidity intervals. For each step, the dm/dt criteria was 0.001% over 5 minutes, a minimum dm/dt time of 30 minutes, and a maximum dm/dt of 120 minutes. Data was collected isothermally at 25° C. with a nitrogen flow rate of 200 cm^3/minute. The post DVS sample was kept at approximately 30% relative humidity before PXRD analysis.

[5] = Chemical stability of solid state forms in closed vials at controlled temperature and relative humidity
Method: (§1) The Amorphous Freebase, however, is hygroscopic and can comprise as much as 12% by weight water at 25° C./90% relative humidity. Environmental controls potentially are required to ensure appropriate control of potency and water content during storage, dispensing, and handling of the Amorphous Freebase.
(§2) The Tartrate Hydrate, however, potentially will convert to an amorphous tartrate below 10% relative humidity, when heated, or when compressed or under shear.

[6] = Stability of solid state forms to light and peroxide
Method: as §1, §2

[7] = Hygroscopicity / moisture sorption isotherm of solid state forms; conditions: general statement on the solid state form
From the text: FIG. 6A is a moisture sorption isotherm corresponding to the Amorphous Freebase (via dehydration).
FIG. 6C is a moisture sorption isotherm corresponding to the Tartrate Hydrate.
FIG. 6D is a moisture sorption isotherm corresponding to the Freebase Anhydrate Form D.
In one embodiment, the Tartrate Hydrate has a moisture sorption isotherm profile showing a weight gain of about 1% to about 2% when relative humidity is increased from about 10% relative humidity to about 90% relative humidity at a temperature of 25° C.

CC[C@@H]1CN(C(=O)NCC(F)(F)F)C[C@@H]1c1cnc2cnc3[nH]ccc3n12.O.O.O.O.O=C(O)C(O)C(O)C(=O)O [Tartrate Hydrate, (3S,4R)-3-ethyl-4-(3H-imidazo[1,2-a]pyrrolo[2,3-e]pyrazin-8-yl)-N-(2,2,2-trifluoroethyl)pyrrolidine-1-carboxamide tartrate tetrahydrate]
physical stability [1]: lack of physical stability | BCS class [2]: Class I | Solubility ([2]; Amorphous Freebase: relative to the corresponding crystalline forms): high solubility; also recorded: good solubility | Growth of degradation products ([3]; 25° C./60% relative humidity, up to 24 months): no growth of degradation products | Growth of degradation products ([3]; 40° C./75% relative humidity, at least one month): no growth of degradation products | Growth of degradation products ([3]; 50° C./75% relative humidity, up to six weeks): no growth of degradation products | chemical stability ([3]; solid state accelerated stability study): acceptable | Change in attributes evaluated (description, crystal form, assay, impurities and water content) ([3]; storage conditions of the accelerated stability study): No material change | Dehydration in moisture sorption isotherm analysis [4]: dehydrates to an amorphous tartrate | degradation observed in closed vials ([5]; closed vials, 30° C./65% relative humidity and 40° C./75% relative humidity over 12 weeks, 50° C./75% relative humidity over 6 weeks): no degradation | chemical stability ([5]; general statement on the solid state form): acceptable chemical stability | stability to light and peroxide [6]: acceptable stability | hygroscopicity [7]: not hygroscopic
